Assay results from patent US7273694B2, “Method and apparatus for reducing pathogens in a biological sample” (Safety Art, LLC, priority 2001, dated 2007).
Like-named read-outs stand apart in the source and are kept apart here.

Tests used:
[1] = test system: Brucella abortus Strain 19; type: cell-based; details: Strain 19 [vaccine strain]
[2] = test system: Campylobacter fetus; assay: Antibiotic sensitivity of bacterial isolate; type: cell-based
[3] = test system: cryopreserved bovine (Bos gaurus) sperm
[4] = test system: fresh semen of gaur (Bos gaur) bulls
[5] = test system: fresh semen of domestic bulls (Bos taurus)

Row | Compound | sensitivity of B. abortus to antibiotic [1] | sensitivity of C. fetus to antibiotic ([2]; laboratory isolate [4914]) | sensitivity of C. fetus to antibiotic [2] | detrimental effects of increasing the concentration [3] | detrimental effects on sperm (motility, viability, acrosomal integrity) [4] | detrimental effects on sperm (motility, viability, acrosomal integrity) [5]
1 | CCC[C@@H]1C[C@@H](C(=O)N[C@@H]([C@H]2O[C@H](SC)[C@H](O)[C@@H](O)[C@H]2O)[C@@H](C)O)N(C)C1 [lincomycin] | resistant | sensitive |  |  |  | 
2 | CN[C@@H]1[C@H](O)[C@H](NC)[C@H]2O[C@@]3(O)C(=O)C[C@@H](C)O[C@H]3O[C@@H]2[C@H]1O [spectinomycin] | sensitive | intermediate |  |  |  | 
3 | CC[C@H]1OC(=O)C[C@@H](O)[C@H](C)[C@@H](O[C@@H]2O[C@H](C)[C@@H](O[C@H]3C[C@@](C)(O)[C@@H](O)[C@H](C)O3)[C@H](N(C)C)[C@H]2O)[C@@H](CC=O)C[C@@H](C)C(=O)/C=C/C(C)=C/[C@@H]1CO[C@@H]1O[C@H](C)[C@@H](O)[C@@H](OC)[C@H]1OC [tylosin] | intermediate | intermediate |  |  |  | 
4 | gentamicin | sensitive |  | sensitive |  |  | 
5 | trypsin |  |  |  | no detrimental effects | no detrimental affects | no detrimental affects
